Changes are numbered by the printed parent chain.
Columns and labels:
[1] = system: Human prostate cancer cells LNCaP-FGC; test: Prostate specific antigen (PSA) production inhibition test in prostate cancer cells; assay type: cell-based; conditions: Homo sapiens, 72 h; compound 1 μM; testosterone 0.1 ng/m; PSA in culture supernatant after 3 days by ELISA; testosterone non-addition group 100%, addition group 0%; read-out: Inhibitory rate (%) at 1 μM (PSA production suppression rate)
Experimental: Human prostate cancer cells LNCaP-FGC were plated in a 24 well plate at 40000 cells/1000 μL/well, and testosterone (final concentration 0.1 ng/m) and the compound (1 μM) were added the next day. The concentration of PSA in the culture supernatant after 3 days from the addition was measured by ELISA, and the PSA production suppression rate was calculated with the testosterone non-addition group as 100% and the testosterone addition group as 0%.

mutant AR (W741C) = target: T1, mutant AR (W741C) (Homo sapiens, UniProt P10275, W742C); test: AR transcription inhibition test (luciferase reporter in Cos-7 cells); assay type: cell-based; conditions: compound 1 μM, 0.1 μM DHT, luciferase activity after 24 hr, relative to control (0.1 μM DHT), read-out: Inhibitory rate (%) of mutant AR at 1 μM
T1 construct: expressed in transfected cells; host or cells: Cos-7
T1 sequence (P10275 1-920 W742C): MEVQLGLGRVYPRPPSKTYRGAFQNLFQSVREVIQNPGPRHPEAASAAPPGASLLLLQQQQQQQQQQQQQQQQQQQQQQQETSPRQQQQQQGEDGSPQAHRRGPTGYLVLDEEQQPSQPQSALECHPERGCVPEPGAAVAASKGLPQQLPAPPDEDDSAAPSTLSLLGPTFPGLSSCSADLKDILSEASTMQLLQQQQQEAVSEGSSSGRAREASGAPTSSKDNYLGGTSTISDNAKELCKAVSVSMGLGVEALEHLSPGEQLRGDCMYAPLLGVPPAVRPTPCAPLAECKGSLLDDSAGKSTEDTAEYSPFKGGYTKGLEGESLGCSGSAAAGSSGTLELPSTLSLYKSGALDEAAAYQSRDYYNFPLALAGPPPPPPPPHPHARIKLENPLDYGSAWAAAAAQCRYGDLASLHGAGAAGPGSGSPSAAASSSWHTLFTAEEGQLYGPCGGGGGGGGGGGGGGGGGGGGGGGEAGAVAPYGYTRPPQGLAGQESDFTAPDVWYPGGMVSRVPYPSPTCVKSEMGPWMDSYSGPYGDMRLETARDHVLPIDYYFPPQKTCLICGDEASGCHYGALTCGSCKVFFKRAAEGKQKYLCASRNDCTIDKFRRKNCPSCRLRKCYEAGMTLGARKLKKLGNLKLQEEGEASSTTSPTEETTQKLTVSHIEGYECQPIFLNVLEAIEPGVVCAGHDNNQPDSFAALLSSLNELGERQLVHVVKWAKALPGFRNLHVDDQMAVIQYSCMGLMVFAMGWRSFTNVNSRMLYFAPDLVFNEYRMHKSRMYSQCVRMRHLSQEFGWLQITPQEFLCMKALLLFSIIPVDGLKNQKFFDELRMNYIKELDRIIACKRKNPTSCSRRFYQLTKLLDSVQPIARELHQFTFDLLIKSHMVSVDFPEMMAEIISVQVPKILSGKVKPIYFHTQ
Experimental: Cos-7 cells (5,000,000 cells) were inoculated to a flask, and incubated in a culture medium (DMEM+10% Dextran Charcoal (DCC)−Fetal Bovine Serum (FBS) and 2 mM glutamine) for 24 hours. Then, a vector DNA harboring mutant AR (W741C) and a vector DNA containing a luciferase gene bound at the downstream of an androgen responsive promoter were cotransfected by a liposome method. After 4 hr, the medium was changed and, after culture for 3 hr, DHT (dihydrotestosterone) at the final concentration of 0.1 μM and the compound at the final concentration of 1 μM were added. After further culture for 24 hr, the luciferase activity was measured, and the AR transcription inhibitory activity of the compound was examined.

[2] = target: T2, wild type androgen receptor (AR) (Homo sapiens, UniProt P10275); test: AR-binding inhibition test, wild type (radio-labeled Mibolerone displacement); conditions: compound 1 μM; 3 nM radio-labeled Mibolerone; 4° C., 3 hours; dextran/charcoal method; read-out: Inhibitory rate (%) at 1 μM, wild type
T2 sequence (P10275 1-920): T1 sequence (P10275 1-920 W742C) with C742W
Experimental: (§1) To a solution of wild type or LNCaP type mutant androgen receptor (AR) was added 3 nM radio-labeled Mibolerone and final concentration 1 μM of the compound. The mixture was incubated at 4° C. for 3 hours, and B (Bound) and F (Free) Mibolerones were separated by the dextran/charcoal method. The label count of B was measured and the inhibition rate of the compound was calculated.

[3] = target: T3, LNCaP type mutant androgen receptor (AR) (Homo sapiens, UniProt P10275, T878A); test: AR-binding inhibition test, LNCaP type (radio-labeled Mibolerone displacement); conditions: compound 1 μM; 3 nM radio-labeled Mibolerone; 4° C., 3 hours; dextran/charcoal method; read-out: Inhibitory rate (%) at 1 μM, LNCaP type
T3 sequence (P10275 1-920 T878A): T1 sequence (P10275 1-920 W742C) with C742W, T878A
Experimental: as §1

- inhibition at 1 µM (mutant AR (W741C)): 36%
- inhibition at 1 µM [2]: 71%
- inhibition at 1 µM [3]: 72%
SMILES: Cc1nn(Cc2ccc(C(N)=O)cc2)c(C)c1-c1ccc(C#N)c(Cl)c1F [Example 337, 4-{[4-(3-chloro-4-cyano-2-fluorophenyl)-3,5-dimethyl-1H-pyrazol-1-yl]methyl}benzamide]
- inhibition at 1 µM [1]: 104%
